# Reference: patent US3991187A, “Medicinal compositions and methods of use involving phosphoric acid esters” (Aktiebolaget Leo, priority 1971, dated 1976)
# Structures can show the parent of a compound that is named as a salt.
# Assays:
# [1] = system: Slow Reacting Substance (SRS); test: antagonism to Slow Reacting Substance on the isolated guinea-pig ileum (Mathe & Strandberg); type: cell-based
# Procedure: The antagonism to Slow Reacting Substance (SRS) is determined on the isolated guinea-pig ileum as described by Mathe & Strandberg (Acta physiol. scand. 82:460, 1971). Purified SRS is obtained from cat paws perfused with compound 48/80 (Strandberg & Uvnas: Acta physiol. scand. 82:358, 1971). Sodium bis(4-(3-oxo-3-(2,4,6-trihydroxyphenyl)propyl)phenyl) phosphate was tested in this system in several concentrations.
# [2] = system: prostaglandins E1, E2 F1α and F2α; test: PG-inhibitory effect on the isolated gerbil colon; type: cell-based, Gerbils (Meriones unguiculatus); settings: for selective inhibitory effects compared with PPP: gerbil colon
# Procedure: The PG-inhibitory effect of esters of the present invention on the gerbil colon are determined using the general technique described by Eakins, Miller & Karim (J. Pharm. Exp. Ther. 176:441, 1971). Gerbils (Meriones unguiculatus) of own breed, both sexes, weighing 50-80 g are used. The animal is stunned, colon ascendens immediately removed, and a 2-3 cm piece mounted in a 6 ml bath containing a modified de Jalon solution at 28° C and continuously oxygenated. Contractions of the organ are registered either isotonically or isometrically. When testing the inhibitory effect of a compound this is added to the bath 2 min before the addition of prostaglandin. […] Several concentrations of each antagonist are used.
# PGE1 = test: prostaglandin-stimulated glycolysis of the prepubertal ovary (lactic acid production); type: cell-based, rats; settings: compared with the compound giving 50% reduction at 50-100 μg/ml
# Procedure: The action of esters of the present invention on the prostaglandin-stimulated glycolysis of the prepubertal ovary is investigated. The method used has been described in detail by Perklev & Ahren (Life Sciences Part I, 10:1387, 1971). In these experiments ovaries from prepubertal rats are removed and placed in Erlenmeyer flasks containing compounds of this invention dissolved in Krebs biocarbonate buffer. After that the ovaries have been preincubated during 60 min. at 37° C in this medium, they are blotted on filter paper and then washed for 2 min. in plain buffer. The ovaries are then transferred to a new incubation medium containing prostaglandins (PG) dissolved in Krebs bicarbonate buffer and incubated at 37° C for 2 hrs with continuous shaking. The ovarian glycolysis is then determined by measuring the concentration of lactic acid in the incubation medium. When polyphloretin phosphate (PPP) is present in the preincubation medium in a concentration of 500 μg/ml, the subsequent ovarian lactic acid production produced by PGE1 is reduced to about 50% of that obtained with ovaries preincubated in plain buffer. When sodium bis(4-(3-(2,4,6-trihydroxyphenyl)propyl)phenyl)phosphate is investigated in the same experimental system, a 50% reduction of the lactate production is seen when only 50-100 μg/ml of the compound is present in the preincubation medium.
# gerbil colon = test: smooth muscle stimulatory effect on the gerbil colon in vivo; parameters: species or system mongolian gerbils; settings: for contraction of the colon: i.v., same dose range (from 40 mg/kg)
# Procedure: This example illustrates the smooth muscle stimulatory effect of esters of this invention on the gerbil colon in vivo.
# The experiments are performed with mongolian gerbils, anesthetized with pentobarbital, 50 mg/kg. The ascending colon is exposed and carefully stretched between silk thread loops and a strain-gauge transducer.
# After a stable base-line has been established an ester of this invention, sodium bis (4-(3-oxo-3-(2,4,6-trihydroxyphenyl)-propyl)phenyl) phosphate is infused i.v.
# In doses from 40 mg/kg this treatment causes the gut to respond with a series of contractions.
# [3] = system: acetylcholine, 5-HT and bradykinin; test: selectivity of the antagonism: other agonists on the gerbil colon; type: cell-based, Gerbils (Meriones unguiculatus); settings: far higher concentrations than the prostaglandin-inhibitory ones
# Source text: (§1) Results from these experiments give an approximate idea of the PG-inhibitory potency of the compounds. When more precise information about this is desired we use a more elaborate method involving the establishment of several PG dose-response curves in the presence of various concentrations of inhibitor. The method used is essentially the same as that described by Arunlakshana & Schild (Br. J. Pharm. 14:48, 1959). Other agonists, acetylcholine,5-HT and bradykinin, are included in these experiments in order to determine the selectivity of the antagonism.
# (§2) In the quantitative assay it is confirmed that sodium bis(4-(3-oxo-3-(2,4,6-trihydroxyphenyl)propyl)phenyl)phosphate has a PG inhibition potency about 10 times that of PPP on a weight basis, and also the results with sodium bis (3,5-dihydroxy-4-(3-(4-hydroxyphenyl)propionyl)phenyl)phosphate are confirmed.
# prostaglandins = test: quantitative assay: PG dose-response curves in the presence of inhibitor (Arunlakshana & Schild), gerbil colon; type: cell-based, Gerbils (Meriones unguiculatus)
# Source text: as §1, §2
# bronchial smooth muscle = test: isolated perfused guinea-pig lung preparation, bronchoconstriction; type: cell-based, guinea pigs; settings: dose 12.8 mg
# Source text: The effects of esters of the present invention on bronchial smooth muscle have been investigated using an isolated perfused guinea-pig lung preparation according to Bhattacharya & Delaunois (Arch. Int. Pharmacodyn. 101:495, 1955). The lungs from guinea pigs weighing 300-400 g are removed, and the trachea and A. pulmonalis cannulated. The arterial cannula is connected to a perfusion fluid reservoir containing Tyrode solution buffered with 10 % Sorensen phosphate buffer. The tracheal cannula is connected with tubing to a carbogen gas supply delivering a constant amount per time unit. The perfusion pressure is measured in a side arm of the tubing with a "Mercury" transducer connected to an Ultralette UV-recorder. The compounds are injected via the arterial cannula, close to the entrance of A. pulmonalis in the lung.
Structure (SMILES),inhibition of SRS [1],selective inhibitory effects compared with PPP [2],prostaglandin inhibiting activity (PGE1),other results
"O=C(CCc1ccc(OP(=O)([O-])Oc2ccc(CCC(=O)c3ccc(O)cc3O)cc2)cc1)c1ccc(O)cc1O.[Na+] [Sodium bis(4-(3-(2,4-dihydroxyphenyl)-3-oxopropyl)phenyl) phosphate]",inhibit SRS,equal to or superior to that of PPP,same order,contraction of the colon (gerbil colon): give contraction in the same dose range
O=C(CCc1cccc(OP(=O)(O)Oc2cccc(CCC(=O)c3ccc(OP(=O)(O)O)cc3)c2)c1)c1ccc(OP(=O)(O)O)cc1 [bis(dihydrogen phosphate) of bis(3-(3-(4-hydroxyphenyl)-3-oxopropyl)phenyl hydrogen phosphate],inhibit SRS,equal to or superior to that of PPP,same order,
"O=C(C=Cc1ccc(O)cc1)c1c(O)cc(OP(=O)([O-])Oc2cc(O)c(C(=O)C=Cc3ccc(O)cc3)c(O)c2)cc1O.[Na+] [sodium bis(3,5-dihydroxy-4-(3-(4-hydroxyphenyl)-acryloyl)phenyl) phosphate]",inhibit SRS,,same order,
"O=C(CCc1ccc(O)cc1)c1c(O)cc(OP(=O)(O)Oc2cc(O)c(C(=O)CCc3ccc(O)cc3)c(O)c2)cc1O [sodium bis(3,5-dihydroxy-4-(3-(4-hydroxyphenyl)propionyl)phenyl phosphate]",inhibit SRS,,same order,"concentration for 50 per cent reduction of the PG-induced contraction, as fraction of that of PPP ([2]; relative to PPP (10-75 μg/ml)): one fourth; influence on the contractions elicited by acetylcholine, 5-HT or bradykinin [3]: no influence; results of the approximate assay (one fourth of the PPP concentration) in the quantitative assay (prostaglandins): confirmed; contraction of the colon (gerbil colon): give contraction in the same dose range"
"O=C(CCc1cccc(OP(=O)([O-])Oc2cccc(CCC(=O)c3c(O)cc(O)cc3O)c2)c1)c1c(O)cc(O)cc1O.[Na+] [sodium bis(3-(3-(2,4,6-trihydroxyphenyl)-3-oxopropyl)phenyl) phosphate]",inhibit SRS,equal to or superior to that of PPP,same order,
"O=C(CCc1cccc(OP(=O)([O-])Oc2cccc(CCC(=O)c3ccc(O)cc3O)c2)c1)c1ccc(O)cc1O.[Na+] [sodium bis(3-(3-(2,4-dihydroxyphenyl)-3-oxopropyl)phenyl) phosphate]",inhibit SRS,equal to or superior to that of PPP,same order,
O=C(CCc1cccc(OP(=O)(O)Oc2cccc(CCC(=O)c3ccc(O)cc3)c2)c1)c1ccc(O)cc1 [sodium bis(3-(3-(4-hydroxyphenyl-3-oxopropyl)phenyl) phosphate],inhibit SRS,equal to or superior to that of PPP,same order,
Cc1cc(OP(=O)([O-])Oc2ccc(CCC(=O)c3ccccc3O)c(C)c2)ccc1CCC(=O)c1ccccc1O.[Na+] [sodium bis(4-(3-(2-hydroxyphenyl)-3-oxopropyl)-3-methylphenyl) phosphate],inhibit SRS,equal to or superior to that of PPP,,
O=C(CCc1ccc(OP(=O)([O-])Oc2ccc(CCC(=O)c3ccccc3O)cc2)cc1)c1ccccc1O.[Na+] [sodium bis(4-(3-(2-hydroxyphenyl)-3-oxopropyl)phenyl)phosphate],inhibit SRS,equal to or superior to that of PPP,,
"O=C(CCCc1ccc(OP(=O)([O-])Oc2ccc(CCCC(=O)c3ccc(O)cc3O)cc2)cc1)c1ccc(O)cc1O.[Na+] [sodium bis(4-(4-(2,4-dihydroxyphenyl)-4-oxobutyl)phenyl) phosphate]",inhibit SRS,equal to or superior to that of PPP,same order,
"COc1ccc(CCC(=O)c2c(O)cccc2O)cc1OP(=O)([O-])Oc1cc(CCC(=O)c2c(O)cccc2O)ccc1OC.[Na+] [sodium bis(5-(3-(2,6-dihydroxyphenyl)-3-oxopropyl)-2-methoxyphenyl)phosphate]",inhibit SRS,equal to or superior to that of PPP,same order,
"O=P(O)(Oc1ccccc1)Oc1ccccc1 [sodium salt of diphenyl phosphate, sodium diphenyl phosphates, reference compound]",without effect,,,bronchoconstricting effect (bronchial smooth muscle): completely lacked such an effect; effect on PG-induced contraction ([2]; concentrations 10 times as high as that of PPP): without effect; effect on the colon (gerbil colon; doses up to 400 mg/kg): no effects at all
O=C([O-])Cc1ccc(C(=O)CCc2cccc(OP(=O)([O-])Oc3cccc(CCC(=O)c4ccc(CC(=O)[O-])cc4)c3)c2)cc1.[Na+].[Na+].[Na+] [trisodium bis(3-(3-(4-carboxylatomethylphenyl)-3-oxopropyl)phenyl) phosphate],inhibit SRS,equal to or superior to that of PPP,same order,
O=C([O-])c1ccc(CCC(=O)c2cccc(OP(=O)([O-])Oc3cccc(C(=O)CCc4ccc(C(=O)[O-])cc4)c3)c2)cc1.[Na+].[Na+].[Na+] [trisodium bis(3-(3-(4-carboxylatophenyl)propionyl)phenyl) phosphate],inhibit SRS,equal to or superior to that of PPP,same order,
O=C([O-])COc1cccc(C(=O)CCc2ccc(OP(=O)([O-])Oc3ccc(CCC(=O)c4cccc(OCC(=O)[O-])c4)cc3)cc2)c1.[Na+].[Na+].[Na+] [trisodium bis(4-(3-(3-(carboxylatomethoxy)phenyl)-3-oxopropyl)-phenyl) phosphate],inhibit SRS,equal to or superior to that of PPP,same order,
COc1ccc(C(=Cc2ccc(C(=O)[O-])cc2)C(=O)c2ccc(OP(=O)([O-])Oc3ccc(C(=O)C(=Cc4ccc(C(=O)[O-])cc4)c4ccc(OC)cc4)c(OC)c3)cc2OC)cc1.[Na+].[Na+].[Na+] [trisodium bis(4-(3-(4-carboxylatophenyl)-2-(4-methoxy-phenyl)-acryloyl)-3-methoxyphenyl) phosphate],inhibit SRS,equal to or superior to that of PPP,same order,
